Reference: ChEMBL document CHEMBL1201862, “PubChem BioAssay data set” (2004)
Calls of active or inactive are those of the source. Rule as the data show it, for most assays here: actives have a measured EC50 and inactives only a lower limit.

Experiments:
[1] = Luminescence Cell-Based Dose Confirmation HTS to Identify Activators of 5'UTR Stem-Loop Driven Alpha-Synuclein mRNA Translation in H4 Neuroglioblastoma Cells. [Related pubchem assays: 1829 (Project Summary), 1814 (Primary HTS)]; assay type: functional
[2] = Luminescence Cell-Based Dose Response HTS to Identify Activators of Luciferase Translation or Activity in H4 […] Cells. [Related pubchem assays: 1829 (Project Summary), 1814 (Primary HTS)]; assay type: functional
H4 = assay: Luminescence Cell-Based Dose Response HTS to Identify Activators of 5'UTR Stem-Loop Driven Prion Protein mRNA Translation in H4 Neuroglioblastoma Cells. [Related pubchem assays: 1829 (Project Summary), 1814 (Primary HTS)]; assay type: functional; settings: Homo sapiens
[3] = HEp-2 cell cytotoxicity, dose response, cytotoxicity control for RSV inhibitor project, HTS (AID 2410); assay type: functional; settings: human respiratory syncytial virus
[4] = system: Streptococcus sp. 'group A'; assay: growth inhibition of control SK(-) GAS strain, dose response, counter-screen for streptokinase expression inhibitor project, luminescence, kanamycin, BacTiterGlo, confirmation (AID 1900); assay type: functional, organism-based; settings: read-out: EC50
Streptokinase A = target: T1, Streptokinase A (Streptococcus pyogenes serotype M1, UniProt P10520); assay: S. pyogenes streptokinase expression inhibitors, potency, dose response, plasminogen activation absorbance, OD405 (AID 1914); assay type: functional, Streptococcus pyogenes M1 GAS;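 also: secreted streptokinase activity via plasminogen activation per viability signal from cell pellet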
T1 sequence (P10520 whole entry): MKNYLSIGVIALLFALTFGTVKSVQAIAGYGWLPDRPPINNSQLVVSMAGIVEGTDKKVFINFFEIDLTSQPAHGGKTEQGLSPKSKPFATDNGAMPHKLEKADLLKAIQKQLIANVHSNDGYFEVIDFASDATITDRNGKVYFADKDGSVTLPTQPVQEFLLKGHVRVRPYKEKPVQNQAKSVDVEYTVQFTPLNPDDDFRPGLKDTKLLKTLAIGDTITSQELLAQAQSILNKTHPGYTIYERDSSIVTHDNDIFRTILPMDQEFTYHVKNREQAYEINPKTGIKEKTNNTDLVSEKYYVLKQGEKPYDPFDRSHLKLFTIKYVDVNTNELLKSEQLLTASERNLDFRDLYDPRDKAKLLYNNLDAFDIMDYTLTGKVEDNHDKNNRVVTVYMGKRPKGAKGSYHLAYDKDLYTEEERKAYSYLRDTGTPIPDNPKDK

Streptococcus = assay: Group A Streptococcus viability loss, dose response, counter-screen for streptokinase expression inhibitor project, luminescence, BacTiterGlo (AID 1915); assay type: functional, organism-based;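 also: potency for reduction of bacterial viability or growth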
[5] = Luminescence Cell-Based Dose Retest to Confirm Inhibitors of Cancer Stem Cells. [Related pubchem assays (depositor defined):AID2717, AID2721]; assay type: functional, Homo sapiens; settings: Homo sapiens
INS1 = assay: beta cell apoptosis inhibitors, cytokine rescue, dose response, luminescence, retest (AID 449756); assay type: functional, cell-based; settings: Rattus norvegicus;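 also: cell death triggered by IL-1 beta plus TNF-alpha plus IFN-gamma mixture; protective hits raise ATP signal compared with cytokine alone wells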
[6] = target: T2, Rac GTPase-activating protein 1 (Homo sapiens, UniProt Q9H0H5); assay: MgcRacGAP GTPase-activating activity inhibitors, confirmation, biochemical, ADP Hunter fluorescence, primary and confirmatory (AID 624330); assay type: functional
T2 sequence (Q9H0H5 whole entry): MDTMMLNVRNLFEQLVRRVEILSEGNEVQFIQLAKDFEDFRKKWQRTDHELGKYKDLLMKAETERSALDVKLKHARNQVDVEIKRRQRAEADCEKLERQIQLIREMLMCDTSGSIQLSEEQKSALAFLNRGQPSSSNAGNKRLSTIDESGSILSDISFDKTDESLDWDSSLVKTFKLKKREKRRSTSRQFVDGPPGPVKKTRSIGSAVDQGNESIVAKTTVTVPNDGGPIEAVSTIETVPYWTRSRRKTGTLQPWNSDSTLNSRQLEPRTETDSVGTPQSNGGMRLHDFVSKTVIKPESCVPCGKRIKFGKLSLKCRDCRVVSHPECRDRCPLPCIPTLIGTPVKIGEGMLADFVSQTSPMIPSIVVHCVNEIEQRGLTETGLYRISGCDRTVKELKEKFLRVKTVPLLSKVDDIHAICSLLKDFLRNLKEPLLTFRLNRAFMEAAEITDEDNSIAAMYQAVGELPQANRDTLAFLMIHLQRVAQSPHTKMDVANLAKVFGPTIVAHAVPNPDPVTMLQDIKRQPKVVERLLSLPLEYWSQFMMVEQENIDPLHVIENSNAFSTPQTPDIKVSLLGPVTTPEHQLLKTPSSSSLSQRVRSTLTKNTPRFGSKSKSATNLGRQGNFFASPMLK

SMILES	EC50 [1]	EC50 [2]	EC50 (H4)	further results
Cc1ccc(-c2cn(-c3ccccc3)c(SCC(=O)NC3CCS(=O)(=O)C3)n2)cc1C (centres undefined)	1.36 µM (active)	8.74 µM (active)	0.301 µM (active)	–
Cc1cc(C)c([N+](=O)[O-])cc1-c1ccc(/C=N/NC(=O)c2nonc2N)o1	–	–	–	CC50 [3]: > 50 µM (active)
Cc1cccc(Nc2nc(N)nc(CN3CCN(c4ccccc4F)CC3)n2)c1	–	–	–	EC50 [4]: 7.31 µM (active); EC50 (Streptokinase A): > 150 µM (not active); EC50 (Streptococcus): 45.8 µM (active)
CCc1ccc(CN(C)Cc2nc(-c3cccc(Cl)c3)no2)nc1	–	–	–	EC50 [4]: 18.4 µM (active); EC50 (Streptokinase A): > 150 µM (not active); EC50 (Streptococcus): > 150 µM (not active)
O=[N+]([O-])c1cc(S(=O)(=O)/N=C(/c2ccccc2)N2CCOCC2)ccc1Cl	0.714 µM (active)	14.6 µM (active)	–	–
CN1C(=O)C(=Cc2c(OCc3cnc(Cl)s3)ccc3ccccc23)C(=O)N(C)C1=O	–	–	–	CC50 [3]: 20.3 µM (active)
Cc1cnc(NC(=O)CCc2ccccc2)s1	> 120 µM (not active)	16.6 µM (active)	15.2 µM (active)	–
Cc1ccc(F)c([C@H]2C3C=CCC(c4ccccc4)C3C(=O)N2Cc2ccccc2)c1 (some centres undefined)	–	–	–	AC50 [5]: 3.71 µM (active); AC50 (INS1): 11 µM (active)
Cc1ccc(C(=O)NCCC(=O)N2CCCC2)cc1	0.419 µM (active)	5.97 µM (active)	> 120 µM (not active)	–
COCC1CCN(C(=O)c2ccc3oc(Cc4ccccc4)nc3c2)C1 (centres undefined)	–	–	–	EC50 [4]: > 150 µM (not active); EC50 (Streptokinase A): > 150 µM (not active); EC50 (Streptococcus): > 150 µM (not active)
COc1ccccc1NC(=O)Cn1c(CN2CCCCC2)nc2ccccc2c1=O	> 120 µM (not active)	> 120 µM (not active)	37.8 µM (active)	–
CC(C)(C)c1ccc(C(=O)N2CCN(C(=O)c3ccco3)CC2)cc1	–	–	–	EC50 [4]: > 150 µM (not active); EC50 (Streptokinase A): > 150 µM (not active); EC50 (Streptococcus): > 150 µM (not active)
O=C(c1cc2ccccn2n1)N1CCN(Cc2ccccc2)CC1	6.68 µM (active)	24.1 µM (active)	9.44 µM (active)	–
COc1ccc(Oc2nc(-c3ccccn3)nc3ccccc23)cc1	–	–	–	EC50 [4]: 17.1 µM (active); EC50 (Streptokinase A): > 150 µM (not active); EC50 (Streptococcus): > 150 µM (not active)
COc1ccc(-c2cc(C(F)F)n3ncc(C(=O)N4CCc5ccccc5C4)c3n2)cc1	–	–	–	CC50 [3]: 28.3 µM (active)
Nc1ccc(C(=O)c2ccc3c(c2)OCCO3)cc1N	9.68 µM (active)	8.7 µM (active)	21.2 µM (active)	IC50 [6]: 22.9 µM (active)
O=C(NCc1cccnc1)c1ccc([N+](=O)[O-])cc1	–	–	–	AC50 (INS1): 3.6 µM (active)
O=C(Nc1ccc(N2CCN(C(=O)c3ccc(Cl)cc3)CC2)cc1)c1cccnc1	–	–	–	AC50 (INS1): 5.43 µM (active)
Nc1cc(-c2ccc(Br)cc2)nn1S(=O)(=O)c1cccc2nsnc12	–	–	–	CC50 [3]: 11.2 µM (active)
Cc1ccc2nc3ccc(N4CCCC4)nn3c(=O)c2c1	0.723 µM (active)	0.558 µM (active)	> 120 µM (not active)	–
O=C(N/N=C/c1cc(Br)cs1)c1ccc2c(c1)OCCO2	0.106 µM (active)	–	> 120 µM (not active)	–
